Experimental data taken from patent US10570179B2, “Substituted urea depsipeptide analogs as activators of the CLPP endopeptidase” (priority 2016, dated 2020).
Values after ≈ are worked out from the molar mass of the structure shown. Where two headings read alike, the source gives them in different places. Numbered stars: 1 amine (or outer) side, 2 acyl side, 3 side chain; on linkers, the order of the positions; unused ones are H or OH. Bridge positions count the residues as written; N and C are the ends. Square brackets hold non-standard residues; d marks the D form. Peptide text beside a SMILES is read from it. * marks the point of attachment. ξ: configuration not given here. Piperazine(2S-CO,4-Me) = CN1CCN[C@H](C(=O)O)C1; Phe(3,5-F2) = N[C@@H](Cc1cc(F)cc(F)c1)C(=O)O; Phe(3,5-Me2) = Cc1cc(C)cc(C[C@H](N)C(=O)O)c1; NH(1-Me-indolin-5-yl) = CN1CCc2cc(N*)ccc21; Morpholine(3S-CO) = O=C(O)[C@@H]1COCCN1; Phe(3-Me) = Cc1cccc(C[C@H](N)C(=O)O)c1; NH(4-Cl-2-F-phenyl) = Fc1cc(Cl)ccc1N*; Pro(4R-Me) = C[C@H]1CN[C@H](C(=O)O)C1; Hyp = O=C(O)[C@@H]1C[C@@H](O)CN1; NH(4-Me-phenyl) = Cc1ccc(N*)cc1; ξNMeThr = CNC(C(=O)O)[C@@H](C)O; aThr = C[C@H](O)[C@H](N)C(=O)O; Pip = O=C(O)[C@@H]1CCCCN1; CO = O=C([*:1])[*:2]

Experiments:
[1] = tested on: S. pneumoniae; test: Minimal inhibitory concentration, microbroth dilution; assay type: cell-based; settings: Streptococcus pneumoniae, read-out: Minimal Inhibitory Concentrations (μM) S. pneumoniae
In short: (§1)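 Compound was diluted twofold in the appropriate broth. Bacterial suspension (approx. 10^5 cfu/mL) was then added in equal volume, giving a maximum test concentration of 200 μM. After aerobic overnight incubation at 37 °C, wells were inspected visually for growth.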

[2] = tested on: S. pyogenes; test: as above; assay type: cell-based; settings: Streptococcus pyogenes, read-out: Minimal Inhibitory Concentrations (μM) S. pyogenes
In short: as §1

[3] = tested on: B. subtilis; test: as above; assay type: cell-based; settings: Bacillus subtilis, read-out: Minimal Inhibitory Concentrations (μM) B. subtilis
In short: as §1

[4] = Plasma stability assay; assay type: in vitro ADME, human
In short: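 Compounds at 10 μM final in human or mouse plasma, incubated at 37 °C and sampled at 0, 3, 24 and 48 h in triplicate. Reactions quenched with cold acetonitrile containing warfarin internal standard; parent measured by LC-MS. Half-life from least-squares first-order fit.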

[5] = Microsomal metabolic stability; assay type: in vitro ADME, mouse
In short: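 CD-1 mouse liver microsomes (0.6381 mg/mL protein microsomal solution, 0.1 M potassium phosphate pH 7.4 with EDTA) were incubated with compound and an NADPH-regenerating system at 37 °C, in triplicate. Acetonitrile/warfarin quench at 0, 15, 30, 60, 120 and 240 min, then LCMS. Half-life came from a first-order least-squares fit.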

[6] = Cytotoxicity assay (CellTiter-Glo cell viability); assay type: cell-based; settings: African green monkey
Protocol: Cytotoxicity was determined by determining the effect of compounds on cell viability. Vero (kidney epithelial cells; ATCC CCL-81) monolayers were trypsinized and 5000 cells/well were seeded (10-15% confluency) into white-wall, flat bottom 96 well microwell plates (Corning) using enriched Dulbecco's Modified Eagle's Medium (Hyclone: DMEM/High Glucose) containing 10% Fetal Bovine Serum (ATCC-30-2020). Plates were incubated overnight at 37° C. in the presence of 5% CO2. Drug-free media was then replaced with media containing serial dilutions of test compound or DMSO carrier. After an additional 72 hours of incubation, viability was indirectly measured using the CellTiter-Glo® Luminescent Cell Viability (Promega) assay. Assay plates were read at peak emission wavelength of 560 nm using a EnVision® Multilabel Plate Reader (Perkin Elmer) or PHERAstar FS Multilabel reader (BMG, Cary, N.C.). The concentration of test compounds that inhibited growth by 50% (IC50 value) was computed using nonlinear regression based fitting of inhibition curves using log [inhibitor] vs. response-variable slope (four parameters)—symmetrical equation, in GraphPad Prism version 6 [GraphPad Software, La Jolla, Calif. USA, www.graphpad.com]. For each experiment, compounds were tested in duplicate. IC50 values presented are the range of two biologically independent experiments.

[7] = Plasma pharmacokinetics; assay type: in vivo, male BALB/c mice; settings: for Vd: read-out: Vss
[8] = plasma stability half-life, human plasma, 37° C.
[9] = microsomal metabolic stability half-life, mouse liver microsomes
[10] = Vero cells, 72 hours, read-out: Cytotoxicity IC50
[11] = male, BALB/c, mouse, in vivo, iv, 10 mg/kg, Route i.v.
[12] = male, BALB/c, mouse, in vivo, iv

Compound	MIC ([1]; MIC) [µM]	MIC ([2]; MIC) [µM]	MIC ([3]; MIC) [µM]	Human ([4]; human, 10 μM) [h]	Mouse ([5]; CD-1, mouse, pH 7.4)	IC50 at 72 h [6] [µM]	further results
Cc1cccc(C[C@H](NC(=O)Nc2ccc(Cl)cc2F)C(=O)N[C@@H]2C(=O)N3CCC[C@H]3C(=O)N(C)C([C@@H](C)O)C(=O)N[C@@H](C)C(=O)N3C[C@H](C)C[C@H]3C(=O)O[C@H]2C)c1 (stereo partly drawn) [Compound 5] ({NH(4-Cl-2-F-phenyl)-CO}-[Phe(3-Me)][aThr]P[ξNMeThr]A[Pro(4R-Me)]; ester 2-C)	0.039 (≈ 0.0323 µg/mL)	0.078 (≈ 0.0646 µg/mL)	0.156 (≈ 0.129 µg/mL)	>50	1.02 ± 0.2 h	> 10	–
Cc1cccc(C[C@H](NC(=O)Nc2ccc(Cl)cc2F)C(=O)N[C@H]2COC(=O)[C@@H]3C[C@@H](C)CN3C(=O)[C@H](C)NC(=O)[C@@H]3CCCCN3C(=O)[C@@H]3C[C@H](N)CN3C2=O)c1 [Compound 12, (S)—N-((2R,6S,8AS,14AS,16S,20S,23AS)-16-AMINO-2,6-DIMETHYL-5,8,14,19,23-PENTAOXOOCTADECAHYDRO-1H,5H,14H,19H-PYRIDO[2,1-I]DIPYRROLO[2,1-C:2′,1′-L][1]OXA[4,7,10,13]TETRAAZACYCLOHEXADECIN-20-YL)-2-(3-(4-CHLORO-2-FLUOROPHENYL)UREIDO)-3-(M-TOLYL)PROPANAMIDE]	0.156 (≈ 0.129 µg/mL)	0.313 (≈ 0.258 µg/mL)	1.25 (≈ 1.03 µg/mL)	38.58	2.34 ± 0.44 h	> 50	–
C[C@@H]1C[C@H]2C(=O)O[C@@H](C)[C@H](NC(=O)[C@H](Cc3cc(F)cc(F)c3)NC(=O)Nc3ccc4c(c3)CCN4C)C(=O)N3CCC[C@H]3C(=O)N3CCOC[C@H]3C(=O)N[C@@H](C)C(=O)N2C1 [Compound 32] ({NH(1-Me-indolin-5-yl)-CO}-[Phe(3,5-F2)][aThr]P[Morpholine(3S-CO)]A[Pro(4R-Me)]; ester 2-C)	–	–	–	–	–	–	MIC [1]: 0.078 µM (≈ 0.0664 µg/mL); MIC [2]: 0.156 µM (≈ 0.133 µg/mL); MIC [3]: 0.313 µM (≈ 0.266 µg/mL); Human (hr) [4, 8]: >>48 hr; Mouse [5, 9]: 0.95 ± .95 h; IC50 at 72 h [6, 10]: 2.87 µM
C[C@@H]1C[C@H]2C(=O)OC[C@H](NC(=O)[C@H](Cc3cc(F)cc(F)c3)NC(=O)Nc3ccc(Cl)cc3F)C(=O)N3CCC[C@H]3C(=O)N3CCN(C)C[C@H]3C(=O)N[C@@H](C)C(=O)N2C1 [Compound 34] ({NH(4-Cl-2-F-phenyl)-CO}-[Phe(3,5-F2)]SP[Piperazine(2S-CO,4-Me)]A[Pro(4R-Me)]; ester 2-C)	0.039 (≈ 0.033 µg/mL)	0.078 (≈ 0.0661 µg/mL)	< 0.02	26.56	1.18 ± .185 h	> 50	–
Cc1cccc(C[C@H](NC(=O)Nc2ccc(Cl)cc2F)C(=O)N[C@H]2COC(=O)[C@@H]3C[C@@H](C)CN3C(=O)[C@H](C)NC(=O)[C@@H]3CCCCN3C(=O)[C@@H]3CCCN3C2=O)c1 [Compound 8, (S)-2-(3-(4-CHLORO-2-FLUOROPHENYL)UREIDO)-N-((2R,6S,8AS,14AS,20S,23AS)-2,6-DIMETHYL-5,8,14,19,23-PENTAOXOOCTADECAHYDRO-1H,5H,14H,19H-PYRIDO[2,1-I]DIPYRROLO[2,1-C:2′,1′-L][1]OXA[4,7,10,13]TETRAAZACYCLOHEXADECIN-20-YL)-3-(M-TOLYL)PROPANAMIDE]	0.078 (≈ 0.0632 µg/mL)	0.156 (≈ 0.126 µg/mL)	0.156 (≈ 0.126 µg/mL)	34.37	1.22 ± 0.13 h	> 10	–
Cc1ccc(NC(=O)N[C@@H](Cc2cccc(C)c2)C(=O)N[C@@H]2C(=O)N3CCC[C@H]3C(=O)N3CCCC[C@H]3C(=O)N[C@@H](C)C(=O)N3C[C@H](C)C[C@H]3C(=O)O[C@H]2C)cc1 [Compound 1, (S)-3-(M-TOLYL)-2-(3-(P-TOLYL)UREIDO)-N-((2R,6S,8AS,14AS,20S,21S,23AS)-2,6,21-TRIMETHYL-5,8,14,19,23-PENTAOXOOCTADECAHYDRO-1H,5H,14H,19H-PYRIDO[2,1-I]DIPYRROLO[2,1-C:2′,1′-L][1]OXA[4,7,10,13]TETRAAZACYCLOHEXADECIN-20-YL)PROPANAMIDE] ({NH(4-Me-phenyl)-CO}-[Phe(3-Me)][aThr]P[Pip]A[Pro(4R-Me)]; ester 2-C)	–	–	–	–	–	–	MIC [2]: 0.313 µM (≈ 0.246 µg/mL); MIC [3]: 0.313 µM (≈ 0.246 µg/mL); Human (hr) [4, 8]: >>48 hr; Mouse [5, 9]: 5.22 h; IC50 at 72 h [6, 10]: 1.59 ± 0.08 µM; C^0 ([7]; Route i.v.): 26862.75 ng/mL; AUC(0-inf) ([7]; male, BALB/c, mouse, in vivo, iv, 10 mg/kg, Route i.v., read-out: AUCinf): 7620 ng·h/mL; AUC(0-t) ([7]; male, BALB/c, mouse, in vivo, iv, 10 mg/kg, Route i.v., read-out: AUClast): 7590 ng·h/mL; clearance ([7]; male, BALB/c, mouse, in vivo, iv, 10 mg/kg, Route i.v., read-out: CL): 21.9 mL/min/kg; half-life ([7]; male, BALB/c, mouse, in vivo, iv, 10 mg/kg, Route i.v., read-out: T1/2 (converted)): 0.49 h; Vd [7, 11]: 0.74 L/kg
Cc1cc(C)cc(C[C@H](NC(=O)Nc2ccc(Cl)cc2F)C(=O)N[C@@H]2C(=O)N3CCC[C@H]3C(=O)N3CCCC[C@H]3C(=O)N[C@@H](C)C(=O)N3C[C@H](C)C[C@H]3C(=O)O[C@H]2C)c1 [Compound 4, (S)-2-(3-(4-CHLORO-2-FLUOROPHENYL)UREIDO)-3-(3,5-DIMETHYLPHENYL)-N-((2R,6S,8AS,14AS,20S,21S,23AS)-2,6,21-TRIMETHYL-5,8,14,19,23-PENTAOXOOCTADECAHYDRO-1H,5H,14H,19H-PYRIDO[2,1-I]DIPYRROLO[2,1-C:2′,1′-L][1]OXA[4,7,10,13]TETRAAZACYCLOHEXADECIN-20-YL)PROPANAMIDE] ({NH(4-Cl-2-F-phenyl)-CO}-[Phe(3,5-Me2)][aThr]P[Pip]A[Pro(4R-Me)]; ester 2-C)	–	1.25 (≈ 1.05 µg/mL)	1.25 (≈ 1.05 µg/mL)	–	6.99 ± 1.07 h	11 ± 1.9	Human (hr) ([4]; human, 10 μM): >>48 hr
Cc1cccc(C[C@H](NC(=O)Nc2ccc(Cl)cc2F)C(=O)N[C@H]2COC(=O)[C@@H]3C[C@@H](C)CN3C(=O)[C@H](C)NC(=O)[C@@H]3CCCCN3C(=O)[C@@H]3C[C@@H](O)CN3C2=O)c1 [Compound 10]	0.078 (≈ 0.0645 µg/mL)	0.156 (≈ 0.129 µg/mL)	0.313 (≈ 0.259 µg/mL)	58.50	0.7 ± 0.07 h	> 50	–
Cc1cccc(C[C@H](NC(=O)Nc2ccc(Cl)cc2F)C(=O)N[C@@H]2C(=O)N3C[C@H](O)C[C@H]3C(=O)N3CCCC[C@H]3C(=O)N[C@@H](C)C(=O)N3C[C@H](C)C[C@H]3C(=O)O[C@H]2C)c1 [Compound 6, (S)-2-(3-(4-CHLORO-2-FLUOROPHENYL)UREIDO)-N-((2R,6S,8AS,14AS,16R,20S,21S,23AS)-16-HYDROXY-2,6,21-TRIMETHYL-5,8,14,19,23-PENTAOXOOCTADECAHYDRO-1H,5H,14H,19H-PYRIDO[2,1-I]DIPYRROLO[2,1-C:2′,1′-L][1]OXA[4,7,10,13]TETRAAZACYCLOHEXADECIN-20-YL)-3-(M-TOLYL)PROPANAMIDE] ({NH(4-Cl-2-F-phenyl)-CO}-[Phe(3-Me)][aThr][Hyp][Pip]A[Pro(4R-Me)]; ester 2-C)	0.039 (≈ 0.0328 µg/mL)	0.156 (≈ 0.131 µg/mL)	0.156 (≈ 0.131 µg/mL)	>50	4.61 ± 1.2 h	50.5 ± 3.8	AUC(0-inf) [7, 12]: 11900 ng·h/mL; AUC(0-t) [7, 12]: 11500 ng·h/mL; C^0 [7, 12]: 34296.43 ng/mL; clearance [7, 12]: 14 mL/min/kg; half-life [7, 12]: 2.82 h; Vd [7, 11]: 1.02 L/kg
